“Also recorded” adds a separate entry of the source.
How the values were obtained:
[1] = test system: e0771 orthotopic breast tumors in C57B1/6 mice; test: Orthotopic e0771 breast tumor model with 20 Gy whole-thorax irradiation
Method: C57B1/6 female mice (Taconic) were injected with 100,000 cells of murine breast cancer (e0771) in the right second mammary fat pad on day 0 of the experiment. […] Each group (n=3) also received a single whole-thorax x-ray irradiation dose of 20 Gy with shielding of other organs. One group (n=3) received no treatment and no radiation. The long axis and short axis of the tumors were measured using calipers and recorded twice a week. On day 18 all mice were euthanized at a humane endpoint, which was defined by 20% weight loss and/or a tumor volume of 2000 mm^3 (˜10% of body weight). Organs and tumors were harvested from the mice and 600 μL of blood was collected via cardiac puncture for serum cytokine analysis. Once tumors were extracted, they were weighed and measured to determine final volume and weight. Pulse oximeter readings were taken initially before radiation treatment and before sacrifice 9 days post-radiation (MouseSTAT Jr. Pulse Oximeter, Kent Scientific). When mice were under anesthesia the sensor of the MouseSTAT Jr. was placed on the hind right paw for 30 seconds. The highest and lowest values shown by the pulse oximeter during this time were recorded and then averaged together. The mean of all the averages per treatment group was then calculated.

TRAIL-/- female mice = test: In vivo respiration-gated microCT imaging of lungs; parameters: species or system mouse; details: 15 Gy
Method: For μCT imaging, all mice were imaged in a SkyScan 1276 in vivo microCT scanner (Bruker, Kontich, Belgium) under isoflurane at 41 μm voxels with a 0.7° rotation step in supine position. […] Mice underwent μCT scans 13 days post irradiation. Image-based respiratory gating was used to sort images into gates based on specific time points of the breathing cycle to minimize motion artifact in the final reconstruction. For 3D reconstruction, Dataviewer version 1.5.4 (Bruker) was used to sort the CT images using the function “Listmode Scan” grouping the images in each bin where bin 0=maximum exhale and bin 3=maximum inhale (empty views <10%). Once the images were sorted, the listmode dataset was opened in NRecon software (Bruker) where the ROI undergoes 3D reconstruction. Reconstructed images were then analyzed in CTAn software (Bruker) where the volume of the lungs was calculated during max inhale and max exhale. The plugins in the custom processing page were used to create an ROI that separated the lungs from the rest of the image. 3D reconstructed images of the lung only were then opened in CTvol software (Bruker) where the color (red=69%, green=50%, blue=50%) and the opacity (7%) of the lung was changed.

[2] = test system: mRNA from mouse lung tissue; test: NanoString nCounter PanCancer Immune Profiling panel, mRNA from mouse lung tissue; type: in vivo
Method: One hour before radiation mice were grouped into control or given 10 mg/kg of TLY012 via IP injection (n=3/gender/treatment). Mice were treated and weighed twice a week up until 11 days post-radiation when all mice were euthanized.
Rodent sacrifice was performed following anesthetization with 100 mg/kg ketamine and 10 mg/kg xylazine administered intraperitoneally. ˜400-600 μL blood was first collected throughcardiac puncture with a 26G ⅝″ needle through the intercostal space into the left ventricle. […] 1 mL of 2 mg/mL EDTA in PBS was injected through the right ventricle to perfuse the lungs, after which the lungs were excised, washed further in PBS, submerged in RNAlater (Sigma-Aldrich, #R0901, Missouri, USA), and flash frozen in liquid nitrogen.
Frozen lung tissue was stored long-term at −80° C. Thawing was performed over 16 hours at 4° C. Tissue homogenization was performed with Precellys Lysing Kit (Cayman Chemical Company, #16859, Michigan, USA) and a Bulley Blender Homogenizer (Next Advance, #G14-G15) prior to RNA extraction with QlAgen RNeasy kit (Qiagen, #74104, Hilden, Germany) and cleaned up with QIAgen RNeasy MinElute Cleanup kit (Qiagen, #74204, Hilden, Germany). Quality and concentration were verified by Nanodrop. Extracted RNA samples were gene expression profiled by NanoString nCounter PanCancer Immune Profiling Panel (NanoString Technologies, #XTCSO-MIP1-12, Seattle, WA) according to the manufacturer's instructions.
Nanostring data was analyzed in nSolver Advanced Analysis Software and ROSALIND. Raw data was uploaded to nSolver for automated normalization, background subtraction, and quality control (QC) check. All samples passed QC. Control mice and mice treated with TLY012 lung samples were used to construct two groups to which an unpaired t-test was run to generate the data in the volcano plot that was created in ROSALIND (FIG. 5). Differential expression was determined with p-values and Benjamini-Yekutieli adjusted p-values. Pathway scores are generated in nSolver as a summarization of expression level changes of biologically related groups of genes. Pathway scores are derived from the first Principal Components Analysis (PCA) scores (1st eigenvectors) for each sample based on the individual gene expression levels for all the measured genes within a specific pathway. The cell type score itself is calculated as the mean of the log2 expression levels for all the probes included in the final calculation for that specific cell type.

male TRAIL-/- mice = test: Masson's trichrome stain of lung 22 weeks post-radiation (late fibrosis); type: in vivo, mouse; details: 18 Gy, 10 mg/kg twice a week
Source text: In order to examine the late term effects of thoracic radiation, we designed an experiment where the single radiation dose was lowered to 18 Gy in male TRAIL-/- mice. […] At 22 weeks when mice reached criteria for euthanasia, they were sacrificed and lung tissue was harvested. Lung tissue slides were stained with Masson's trichrome and imaged at 10X on an Olympus VS200 slide scanner.

duodenum, liver or heart = test: H&E of duodenum, liver and heart of irradiated, treated mice; details: 20 Gy irradiated mice, 2 weeks treatment
Method: Animal studies were carried out at Brown University facilities with approval from Brown University IACUC. C57B1/6 mice (Taconic), mice with bi-allelic loss of TRAIL Death Receptor-(DR5-/-) in a C57B1/6 background, and mice with bi-allelic loss of TRAIL (TRAIL -/-) in a C57B1/6 background were given a single whole-thorax x-ray (Philips RT250) irradiation dose of 20 Gy with shielding of other organs. 8-15-week-old male and female mice of each genotype were used. […] Treatment was continued for two weeks, where TLY012 was administered twice a week and ONC201 was administered once a week. For each genetic background, two mice received a control PO, two mice received TLY012 IP, and two mice received ONC201 PO. Mice were weighed twice a week, and 13 days post-irradiation all mice were euthanized. Organs were harvested from the mice and 600 μL of blood was collected via cardiac puncture for serum cytokine analysis. Organs were preserved in 10% formalin then embedded in paraffin and sectioned at a distance of 5 μm. […] TRAIL-/- female mice were also subjected to a survival study with a single whole-thorax radiation doses of 15 Gy or 18 Gy treated with the same regimen of TLY012 or control (n=2/radiation dose/treatment) (FIG. 3B). […]

[3] = all mice, treated versus control
[4] = lung, 20 Gy, relative to control

TLY012: N-terminal PEGylated recombinant human TRAIL; PEGylated trimeric TRAIL formulation
effect on anti-tumor efficacy of radiation (tumor weight and volume) ([1]; 20 Gy on day 9, treatment days 9, 12, 16, sacrifice day 18, FIG. 6B, C): no evidence that ONC201, TLY012 or their combination reduced efficacy of treatment
alveolar-wall thickness (H&E) ([1]; 9 days post irradiation): reduction
lung inflammation (H&E) ([1]; 9 days post irradiation): decreased inflammation
oxygen saturation (pulse oximetry) ([1]; 9 days post-radiation, versus irradiated mice without further treatment, FIG. 6D): more conserved; also recorded: partially rescued
CCL22/MDC levels ([1]; irradiated tumor-bearing mice, versus irradiated control, FIG. 6E): significant decrease; also recorded: reduction; also recorded: Reduced
rescue from radiation induced pneumonitis ([1]; tumor-bearing mice, 20 Gy): more potent by TLY012 than with ONC201
3D reconstruction of lungs: clarity and visible airway space (TRAIL-/- female mice; same opacity conditions, FIG. 7B): overall clearer and have more visible airway space
lung expansion upon inhalation (μCT) (TRAIL-/- female mice; twice weekly treatment, two weeks post irradiation, versus 15 Gy control, FIG. 7A): expand more upon inhalation
genes with statistically significant differential expression ([2]; TRAIL-/- mice, 20 Gy, treated versus control): 16
“Antigen Processing” pathway score [2, 3]: significant increases
“Interferon” pathway score [2, 3]: significant increases
“Antigen Processing” pathway score ([2]; female cohort): significant increases
“Basic Cell Functions” pathway score ([2]; female cohort): decrease
“Dendritic Cell Functions” pathway score ([2]; female cohort): significant increases
“MHC” pathway score ([2]; female cohort): significant increases
BCL6 mRNA [2, 4]: downregulated
CCL6 mRNA [2, 4]: upregulated
DOCKS mRNA [2, 4]: downregulated
FOXJ1 mRNA [2, 4]: downregulated
H2-Q2 mRNA [2, 4]: downregulated
HERC6 mRNA [2, 4]: upregulated
IKZF2 mRNA [2, 4]: downregulated
IL1RL2 mRNA [2, 4]: upregulated
KLRA7 mRNA [2, 4]: upregulated
MAPK8 mRNA [2, 4]: downregulated
PTGS2 mRNA [2, 4]: downregulated
RAET1A mRNA [2, 4]: downregulated
RELB mRNA [2, 4]: upregulated
RRAD mRNA [2, 4]: downregulated
TMEM173 mRNA [2, 4]: upregulated
TNFSF10 mRNA [2, 4]: upregulated
collagen deposition / fibrosis (Masson's trichrome) (male TRAIL-/- mice): rescue; also recorded: decrease in collagen deposition; also recorded: less fibrosis
toxicities in duodenum, liver or heart (duodenum, liver or heart): No obvious toxicities
